Data set [1] concerns β-amyloid peptide production. The data set can be described thus: Cellular screen for inhibitors of β-amyloid production (ELISA, 293 751 SWE cells). Type of data set: cell-based, human. The settings on record: 2 h pretreatment + 2 h, normalized for cytotoxicity (MTT), concentration not given. How it is done: (§1) This screening assay employed cells (K293=human kidney cell line) which were stably transfected with the gene for amyloid precursor protein 751 (APP751) containing the double mutation Lys651 Met652 to Asn651 Leu652 (APP751 numbering) in the manner described in International Patent Application Publication No. 94/10569^1 and Citron et al.^16. This mutation is commonly called the Swedish mutation and the cells, designated as "293 751 SWE", were plated in Coming 96-well plates at 1.5-2.5×10^4 cells per well in Dulbecco's minimal essential media plus 10% fetal bovine serum. Cell number is important in order to achieve β-amyloid ELISA results within the linear range of the assay (~0.2 to 2.5 ng per mL).
Following overnight incubation at 37° C. in an incubator equilibrated with 10% carbon dioxide, media were removed and replaced with 200 μL of a substituted 3-indolyl-5-pyrazolone (drug) containing media per well for a two hour pretreatment period and cells were incubated as above.
At the end of the pretreatment period, the media were again removed and replaced with fresh drag containing media as above and cells were incubated for an additional two hours. After treatment, plates were centrifuged in a Beckman GPR at 1200 rpm for five minutes at room temperature to pellet cellular debris from the conditioned media. From each well, 100 μL of conditioned media or appropriate dilutions thereof were transferred into an ELISA plate precoated with antibody 266 against amino acids 13-28 of β-amyloid peptide as described in International Patent Application Publication No. 94/10569^1 and stored at 4° C. overnight. An ELISA assay employing labelled antibody 6C6 against amino acids 1-16 of β-amyloid peptide was run the next day to measure the amount of β-amyloid peptide produced.
The results of the β-amyloid peptide ELISA were fit to a standard curve and expressed as ng/mL β-amyloid peptide. […] All results are the mean and standard deviation of at least six replicate assays.

Another data set concerns 293 751 SWE cells. The data set can be described thus: Cytotoxicity (MTT) in 293 751 SWE cells. The settings on record: concentration not given. Type of data set: cell-based, human. The method, then:
as §1
Cytotoxic effects of the compounds were measured by a modification of the method of Hansen, et al.^17. To the cells remaining in the tissue culture plate was added 25 μL of a 3,(4,5-dimethylthiazol-2-yl)2,5-diphenyltetrazolium bromide (MTT) stock solution (5 mg/mL) to a final concentration of 1 mg/mL. Cells were incubated at 37° C. for one hour, and cellular activity was stopped by the addition of an equal volume of MTT lysis buffer (20% w/v sodium dodecylsulfate in 50% dimethylformamide, pH 4.7). Complete extraction was achieved by overnight shaking at room temperature. The difference in the OD562nm and the OD650nm was measured in a Molecular Device's UVmax microplate reader as an indicator of the cellular viability.

Each structure is given as a SMILES string.

Take `COc1ccc2c(c1)c(CC1=NN(C3CCCC3)C(=O)C1)c(C)n2C(=O)c1ccc(Cl)cc1` [Example 11, 3-[1-(4-chlorobenzoyl)-5-methoxy-2-methyl-3-indolylmethyl]-1-cyclopentyl-5-pyrazolone]: the “reduction of β-amyloid peptide production as compared to control” value (“reduction” below) in data set [1] is “at least 20%”. Moreover, the “cytotoxic effect on the 293 751 SWE cells” value (shortened to “cytotoxic effect”) in the data set with 293 751 SWE cells is listed as “did not have a significant cytotoxic effect”.

As to `COc1ccc2c(c1)c(CC1=NN(C3CCCCCC3)C(=O)C1)c(C)n2C(=O)c1ccc(Cl)cc1` [Example 12, 3-[1-(4-chlorobenzoyl)-5-methoxy-2-methyl-3-indolylmethyl]-1-cycloheptyl-5-pyrazolone], the “reduction” value in data set [1] is listed as “at least 20%”. For the same compound, the “cytotoxic effect” value in the data set with 293 751 SWE cells is “did not have a significant cytotoxic effect”.

On to `COc1ccc2c(c1)c(CC1=NN(Cc3ccccc3)C(=O)C1)c(C)n2C(=O)c1ccc(Cl)cc1` [Example 13, 3-[1-(4-chlorobenzoyl)-5-methoxy-2-methyl-3-indolylmethyl]-1-benzyl-5-pyrazolone], for which the “reduction” value in data set [1] is on record as “at least 20%”. In addition, in the data set on 293 751 SWE cells, the “cytotoxic effect” value is listed as “did not have a significant cytotoxic effect”.

Regarding `CCCC(CCC)N1N=C(Cc2c(C)n(C(=O)c3ccc(Cl)cc3)c3ccc(OC)cc23)CC1=O` [Example 16, 3-[1-(4-chlorobenzoyl)-5-methoxy-2-methyl-3-indolylmethyl]-1-(4-heptyl)-5-pyrazolone], the “reduction” value in data set [1] is recorded as “at least 20%”. Also, the “cytotoxic effect” value in the data set on 293 751 SWE cells was “did not have a significant cytotoxic effect”.

As for `COc1ccc2[nH]c(C)c(CC3=NN(C4CCCCC4)C(=O)C3)c2c1` [Example 17, 3-(5-methoxy-2-methyl-3-indolylmethyl)-1-cyclohexyl-5-pyrazolone], in data set [1], the “reduction” value is given as “at least 20%”. Besides, the “cytotoxic effect” value with 293 751 SWE cells is “did not have a significant cytotoxic effect”.

As to `COc1ccc2c(c1)c(CC1=NN(C3CCCCC3)C(=O)C1)c(C)n2Cc1ccccc1` [Example 20, 3-(1-benzyl-5-methoxy-2-methyl-3-indolylmethyl)-1-cyclohexyl-5-pyrazolone], the “reduction” value in data set [1] was “at least 20%”. In the data set with 293 751 SWE cells, the “cytotoxic effect” value was “did not have a significant cytotoxic effect”.

For the compound `COc1ccc2c(c1)c(CCC1=NN(C3CCCCC3)C(=O)C1)c(C)n2C(=O)c1ccc(Cl)cc1` [Example 21, 3-[1-(4-chlorobenzoyl)-5-methoxy-2-methyl-3-indolylethyl]-1-cyclohexyl-5-pyrazolone], the “reduction” value in data set [1] is on record as “at least 20%”. The “cytotoxic effect” value in the data set on 293 751 SWE cells is listed as “did not have a significant cytotoxic effect”.

In the case of `Cc1c(CC2=NN(C3CCCCC3)C(=O)C2)c2ccccc2n1C(=O)c1ccc(Cl)cc1` [Example 22, 3-[1-(4-chlorobenzoyl)-2-methyl-3-indolylmethyl]-1-cyclohexyl-5-pyrazolone], the “reduction” value in data set [1] is listed as “at least 20%”. Also, the “cytotoxic effect” value in the data set with 293 751 SWE cells was “did not have a significant cytotoxic effect”.

For the compound `COc1ccc2c(c1)c(CC1=NN(c3cccc(Br)c3)C(=O)C1)c(C)n2C(=O)c1ccc(Cl)cc1` [Example 28, 3-[1-(4-chlorobenzoyl)-5-methoxy-2-methyl-3-indolylmethyl]-1-(3-bromophenyl)-5-pyrazolone], the “reduction” value in data set [1] was below 20%.

In the case of `COc1ccc2c(c1)c(CC1=NN(c3cc(C)cc(C)c3)C(=O)C1)c(C)n2C(=O)c1ccc(Cl)cc1` [Example 29, 3-[1-(4-chlorobenzoyl)-5-methoxy-2-methyl-3-indolylmethyl]-1-(3,5-dimethylphenyl)-5-pyrazolone], in data set [1], the “reduction” value is given as “at least 20%”. Besides, the “cytotoxic effect” value with 293 751 SWE cells was “did not have a significant cytotoxic effect”.

Regarding `COc1ccc2c(c1)c(CC1=NN(c3ccc(C(F)(F)F)cc3)C(=O)C1)c(C)n2C(=O)c1ccc(Cl)cc1` [Example 37, 3-[1-(4-chlorobenzoyl)-5-methoxy-2-methyl-3-indolylmethyl]-1-(4-trifluoromethylphenyl)-5-pyrazolone], the “reduction” value in data set [1] is on record as “at least 20%”. Also, in the data set on 293 751 SWE cells, the “cytotoxic effect” value is reported as “did not have a significant cytotoxic effect”.

As to `COc1ccc2c(c1)c(CC1=NN(C3CCCCC3)C(=O)C1)c(C)n2C(=O)c1ccc(Cl)c(Cl)c1` [Example 39, 3-[1-(3,4-dichlorobenzoyl)-5-methoxy-2-methyl-3-indolylmethyl]-1-cyclohexyl-5-pyrazolone], the “reduction” value in data set [1] is recorded as “at least 20%”. Also, the “cytotoxic effect” value in the data set with 293 751 SWE cells is “did not have a significant cytotoxic effect”.

Turning to `COc1ccc2c(c1)c(CC1=NN(c3cccc(NC(C)=O)c3)C(=O)C1)c(C)n2C(=O)c1ccc(Cl)cc1` [Example 41, 3-[1-(4-chlorobenzoyl)-5-methoxy-2-methyl-3-indolylmethyl]-1-(3-acetamidophenyl)-5-pyrazolone], in data set [1], the “reduction” value is given as below 20%.

Consider `COc1ccc2c(c1)c(CC1=NN(C3CCCCC3)C(=O)C1C)c(C)n2C(=O)c1ccc(Cl)cc1` (stereo not shown) [Example 43, 3-[1-(4-chlorobenzoyl)-5-methoxy-2-methyl-3-indolylmethyl]-1-cyclohexyl-4-methyl-5-pyrazolone], for which, in data set [1], the “reduction” value is “at least 20%”. The “cytotoxic effect” value in the data set with 293 751 SWE cells is “did not have a significant cytotoxic effect”.

For `COc1ccc2c(c1)c(CC1=NN(C3CCCCC3)C(=O)C1(C)C)c(C)n2C(=O)c1ccc(Cl)cc1` [Example 44, 3-[1-(4-chlorobenzoyl)-5-methoxy-2-methyl-3-indolylmethyl]-1-cyclohexyl-4,4-dimethyl-5-pyrazolone], the “reduction” value in data set [1] is given as “at least 20%”. In addition, the “cytotoxic effect” value in the data set on 293 751 SWE cells is listed as “did not have a significant cytotoxic effect”.

For the compound `COc1ccc2c(c1)c(CC1=NN(C)C(=O)C1)c(C)n2C(=O)c1ccc(Cl)cc1` [Example 46, 3-[1-(4-chlorobenzoyl)-5-methoxy-2-methyl-3-indolylmethyl]-1-methyl-5-pyrazolone], the “reduction” value in data set [1] was “at least 20%”. In addition, in the data set on 293 751 SWE cells, the “cytotoxic effect” value is reported as “did not have a significant cytotoxic effect”.

As for `O=C1CC(CCCc2c[nH]c3ccccc23)=NN1C1CCCCC1` [Example 49, 3-[3-indolyl-n-propyl]-1-cyclohexyl-5-pyrazolone], in data set [1], the “reduction” value is “at least 20%”. For the same compound, in the data set with 293 751 SWE cells, the “cytotoxic effect” value was “did not have a significant cytotoxic effect”.

As for `COc1ccc2c(c1)c(CC1=NN(c3cccc(C(F)(F)F)c3)C(=O)C1)c(C)n2C(=O)c1ccc2ccccc2c1` [Example 51], the “reduction” value in data set [1] is listed as “at least 20%”. The “cytotoxic effect” value in the data set on 293 751 SWE cells is listed as “did not have a significant cytotoxic effect”.

On to `COc1ccc2c(c1)c(CC1=NN(c3cccc(C(F)(F)F)c3)C(=O)C1)c(C)n2C(=O)c1ccccc1` [Example 53, 3-[1-benzoyl-5-methoxy-2-methyl-3-indolylmethyl]-1-(3-trifluoromethylphenyl)-5-pyrazolone], for which, in data set [1], the “reduction” value is recorded as “at least 20%”. Besides, the “cytotoxic effect” value in the data set on 293 751 SWE cells is “did not have a significant cytotoxic effect”.

For `COc1ccc2c(c1)c(CC1=NN(c3ccc(C(F)(F)F)cc3)C(=O)C1)c(C)n2C(=O)c1ccc(C#N)cc1` [Example 55, 3-[1-(4-cyanobenzoyl)-5-methoxy-2-methyl-3-indolylmethyl]-1-(4-trifluoromethylphenyl)-5-pyrazolone], the “reduction” value in data set [1] is recorded as “at least 20%”. For the same compound, the “cytotoxic effect” value in the data set on 293 751 SWE cells is recorded as “did not have a significant cytotoxic effect”.

As for `COc1ccc(C(=O)n2c(C)c(CC3=NN(C4CCCCC4)C(=O)C3)c3cc(OC)ccc32)cc1` [Example 57, 3-[1-(4-methoxybenzoyl)-5-methoxy-2-methyl-3-indolylmethyl]-1-cyclohexyl-5-pyrazolone], the “reduction” value in data set [1] is “at least 20%”. For the same compound, the “cytotoxic effect” value in the data set on 293 751 SWE cells is given as “did not have a significant cytotoxic effect”.
